Data: ChEMBL document CHEMBL1127764, “An efficient method for the synthesis of guanidino prodrugs” (Bioorg Med Chem Lett, 1994)

Tests used:
[1] = Half-life in vitro in rat plasma; assay type: ADME
[2] = test system: Caco-2; experiment: Permeability coefficient in Caco-2 cell line monolayers was tested; assay type: functional, Homo sapiens
[3] = species: Rattus norvegicus; experiment: Half-life in vitro in rat plasma; No detectable degradation over 2 hr; no detectable degradation over 2 hours; assay type: ADME
[4] = Half-life in vitro in pig liver; assay type: ADME, tissue-based, Sus scrofa

Row | SMILES | half-life [1] [min] | Pc [2] [×10⁻⁶ cm/s] | T1/2 [3] | half-life [4] [min]
1 | CC(C)(C)C(=O)OCOC(=O)/N=C(/NCc1ccccc1)NC(=O)OCOC(=O)C(C)(C)C | 1.12 | 3.69 | – | –
2 | O=C(/N=C(/NCc1ccccc1)NC(=O)OCc1ccccc1)OCc1ccccc1 | 12.5 | 0.51 | – | –
3 | N=C(N)NCc1ccccc1 | – | 2.24 | Stable | –
4 | NC(=O)CCCCCCN=C(N)N | – | – | – | < 5
5 | O=C(Cc1ccccc1)OCOC(=O)/N=C(/NCc1ccccc1)NC(=O)OCOC(=O)Cc1ccccc1 | 0.13 | 8.55 | – | –
6 | O=C(/N=C(/NCc1ccccc1)NC(=O)Oc1ccccc1)Oc1ccccc1 | 0.46 | 6.45 | – | –
